We go through 19 compounds from patent US12240844B2 (Voronoi, Inc., priority 2019, dated 2025).

Assay [1] concerns the target T1, human GST-DYRK1A (full length) (Homo sapiens, UniProt Q13627).
T1 construct: purified human GST-DYRK1A (full length, Thermo scientifics) enzyme; GST; purchased Thermo scientifics
The experiment in a line: GST-DYRK1A enzyme inhibition, ADP-Glo kinase assay. Particulars: read-out: DYRK1 IC50. The class given is biochemical. Here is the method: (§1) In order to evaluate the inhibitory activity of the compounds according to the present invention on LRRK2, LRRK2 (G2019S), DYRK1, CLK1 and TTK kinases, the following experiment was performed.
(§2) Example compounds were reacted with the purified human GST-DYRK1A (full length, Thermo scientifics) enzyme to evaluate the enzyme inhibitory ability as follows. As the reaction buffer, the composition of 40 mM Tris-HCl pH 7.4, 20 mM MgCl2, 0.5 mg/mL BSA, and 50 uM DTT was used, and the reaction of all test materials was performed on the reaction buffer. During the test, the human GST-DYRK1A (full length, 10 ng) enzyme, the purified ATP (10 uM), and a specific substrate solution were reacted at 25° C. for 1 hour, and then the enzyme activity was identified using the in vitro ADP-Glo™ kinase assay (promega). Luminescence was measured by reacting the enzyme activity reaction solution, an ADP-Glo reaction solution and the enzyme potency detection solution in a ratio of 2:2:1. The degree of inhibition of enzyme activity according to the treatment concentrations of the respective compounds was calculated based on the fluorescence of the enzyme activity of a solvent control group that was not treated with the compound, where the concentration of each compound to inhibit enzyme activity inhibition by 50% was determined as an IC50 (nM) value. The IC50 of each compound was determined in triplicate data sets and obtained using Prism (version 7.01, GraphPad) software.
(§3) In the table below, the following designations were used for the evaluation of enzyme inhibitory ability.

The target in a further assay is T2, human GST-CLK1 (129-end) (Homo sapiens, UniProt P49759).
T2 construct: purified human GST-CLK1 (129-end, Signalchem) enzyme; GST; purchased Signalchem
The experiment in a line: GST-CLK1 enzyme inhibition, ADP-Glo kinase assay. It is filed as biochemical. As to conditions: ATP 10 uM. Here is the method: as §1
as §2, with “GST-CLK1 (129-end, Signalchem)” for “GST-DYRK1A (full length, Thermo scientifics)”, “GST-CLK1 (129-end, 3” for “GST-DYRK1A (full length, 10”
as §3

T2 sequence (P49759 129-484 limits assumed): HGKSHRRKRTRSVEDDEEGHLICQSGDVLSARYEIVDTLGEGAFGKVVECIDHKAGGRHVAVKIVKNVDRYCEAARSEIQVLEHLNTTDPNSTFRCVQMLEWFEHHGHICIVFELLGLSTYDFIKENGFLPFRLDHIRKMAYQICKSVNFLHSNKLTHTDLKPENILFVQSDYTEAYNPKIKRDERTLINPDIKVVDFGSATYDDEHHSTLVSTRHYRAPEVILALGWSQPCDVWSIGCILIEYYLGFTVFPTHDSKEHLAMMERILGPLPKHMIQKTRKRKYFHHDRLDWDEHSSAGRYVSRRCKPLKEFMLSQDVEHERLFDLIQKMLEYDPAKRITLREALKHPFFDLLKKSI

Take `CCNc1cc(Nc2ccc(C(=O)N3CCOCC3)c3c2OCO3)nc2[nH]cc(C#N)c12` [Example 33]: the results for the IC50 (in assay [1]; on human GST-CLK1 (129-end)) were 301 to 1000 nM and 101 to 300 nM, respectively.
In the same order, the values of `CCNc1cc(Nc2ccc(C(=O)N3CCC(N4CCOCC4)CC3)c3c2OCO3)nc2[nH]cc(C#N)c12` [Example 34, 4-(ethylamino)-6-((7-(4-morpholinopiperidine-1-carbonyl)benzo[d] [1,3]dioxol-4-yl)amino)-1H-pyrrolo[2,3-b]pyridine-3-carbonitrile] are under 100 nM and under 100 nM.
In the same order, the values of `CCNc1cc(Nc2ccc(C(=O)N3CCN(C4COC4)CC3)c3c2OCCO3)nc2[nH]cc(C#N)c12` [Example 35, 4-(ethylamino)-6-((8-(4-(oxetan-3-yl)piperazine-1-carbonyl)-2,3-dihydrobenzo[b] [1,4]dioxin-5-yl)amino)-1H-pyrrolo[2,3-b]pyridine-3-carbonitrile] are 101 to 300 nM and 101 to 300 nM.
`N#Cc1c[nH]c2nc(Nc3ccc(C(=O)N4CCOCC4)c4c3OCCO4)cc(NC3CCC3)c12` [Example 36, 4-(cyclobutylamino)-6-((8-(morpholine-4-carbonyl)-2,3-dihydrobenzo[b] [1,4]dioxin-5-yl)amino)-1H-pyrrolo[2,3-b]pyridine-3-carbonitrile]: the IC50 (in assay [1]; against human GST-CLK1 (129-end)) was 301 to 1000 nM each time.
As for `O=C(c1ccc(Nc2cc(NC3CCCCC3)c3c(Cl)c[nH]c3n2)c2c1OCCO2)N1CCOCC1` [Example 61, (8-((3-chloro-4-(cyclohexylamino)-1H-pyrrolo[2,3-b]pyridin-6-yl)amino)-2,3-dihydrobenzo[b] [1,4]dioxin-5-yl)(morpholino) methanone], the IC50 (in assay [1]; at human GST-CLK1 (129-end)) was 301 to 1000 nM each time.
For the compound `COCCNc1cc(Nc2ccc(S(=O)(=O)N3CCOCC3)cc2OC)nc2[nH]cc(Cl)c12` [Example 71, 3-chloro-N^6-(2-methoxy-4-(morpholinosulfonyl)phenyl)-N^4-(2-methoxyethyl)-1H-pyrrolo[2,3-b]pyridine-4,6-diamine], the IC50 (in assay [1]; against human GST-CLK1 (129-end)) was 301 to 1000 nM throughout.
As for `COc1cc(S(=O)(=O)N2CCC(N3CCOCC3)CC2)ccc1Nc1cc(NC2CCCCC2)c2c(Cl)c[nH]c2n1` [Example 77, 3-chloro-N^4-cyclohexyl-N^6-(2-methoxy-4-((morpholinopiperidin-1-yl)sulfonyl)phenyl)-1H-pyrrolo[2,3-b]pyridine-4,6-diamine], the IC50 (in assay [1]; at human GST-CLK1 (129-end)) was 301 to 1000 nM each time.
As for `COCCNc1cc(Nc2ccc(S(=O)(=O)N3CCC(N4CCOCC4)CC3)cc2OC)nc2[nH]cc(Cl)c12` [Example 78, 3-chloro-N^6-(2-methoxy-4-((morpholinopiperidin-1-yl)sulfonyl)phenyl)-N^4-(2-methoxyethyl)-1H-pyrrolo[2,3-b]pyridine-4,6-diamine], the IC50 (in assay [1]; on human GST-CLK1 (129-end)) was 301 to 1000 nM throughout.
With `COc1cc(S(=O)(=O)N2CCC(N3CCOCC3)CC2)ccc1Nc1cc(NCCS(C)(=O)=O)c2c(Cl)c[nH]c2n1` [Example 79, 3-chloro-N^6-(2-methoxy-4-((morpholinopiperidin-1-yl)sulfonyl)phenyl)-N^4-(2-(methylsulfonyl)ethyl)-1H-pyrrolo[2,3-b]pyridine-4,6-diamine], the IC50 (in assay [1]; against human GST-CLK1 (129-end)) was under 100 nM each time.
In the case of `COc1cc(S(C)(=O)=O)ccc1Nc1cc(NC2CCCCC2)c2c(Cl)c[nH]c2n1` [Example 86, 3-chloro-N^4-cyclohexyl-N^6-(2-methoxy-4-(methylsulfonyl)phenyl)-1H-pyrrolo[2,3-b]pyridine-4,6-diamine], the IC50 (in assay [1]; on human GST-CLK1 (129-end)) was 301 to 1000 nM throughout.
As to `COCCNc1cc(Nc2ccc(S(C)(=O)=O)cc2OC)nc2[nH]cc(Cl)c12` [Example 87, 3-chloro-N^6-(2-methoxy-4-(methylsulfonyl)phenyl)-N^4-(2-methoxyethyl)-1H-pyrrolo[2,3-b]pyridine-4,6-diamine], the half-maximal inhibitory concentration (IC50) (in assay [1]; against human GST-CLK1 (129-end)) was 301 to 1000 nM in each case.
For the compound `CCOCCNc1cc(Nc2ccc(C(=O)N3CCOCC3)c3c2OCCO3)nc2[nH]cc(C(F)(F)F)c12` [Example 166, (8-((4-((2-ethoxyethyl)amino)-3-(trifluoromethyl)-1H-pyrrolo[2,3-b]pyridin-6-yl)amino)-2,3-dihydrobenzo[b] [1,4]dioxin-5-yl)(morpholino) methanone], the values for the concentration for half-maximal inhibition (IC50) (in assay [1]; against human GST-CLK1 (129-end)) were 101 to 300 nM and 301 to 1000 nM, respectively.
Turning to `CCOCCNc1cc(Nc2ccc(C(=O)N3CCC(N4CCOCC4)CC3)c3c2OCCO3)nc2[nH]cc(C(F)(F)F)c12` [Example 167, (8-((4-((2-ethoxyethyl)amino)-3-(trifluoromethyl)-1H-pyrrolo[2,3-b]pyridin-6-yl)amino)-2,3-dihydrobenzo[b] [1,4]dioxin-5-yl)(4-morpholinopiperidin-1-yl)methanone], the IC50 (in assay [1]; against human GST-CLK1 (129-end)) was under 100 nM throughout.
On to `CC(C)Nc1cc(Nc2ccc(C(=O)N3CCOCC3)c3c2OCCO3)nc2[nH]cc(C(F)(F)F)c12` [Example 168, (8-((4-(isopropylamino)-3-(trifluoromethyl)-1H-pyrrolo[2,3-b]pyridin-6-yl)amino)-2,3-dihydrobenzo [b] [1,4]dioxin-5-yl)(morpholino) methanone], for which the figures for the IC50 (in assay [1]; at human GST-CLK1 (129-end)) were 301 to 1000 nM and under 100 nM, respectively.
With `CCCCNc1cc(Nc2ccc(C(=O)N3CCOCC3)c3c2OCCO3)nc2[nH]cc(C(F)(F)F)c12` [Example 169, (8-((4-(butylamino)-3-(trifluoromethyl)-1H-pyrrolo[2,3-b]pyridin-6-yl)amino)-2,3-dihydrobenzo [b] [1,4]dioxin-5-yl)(morpholino) methanone], the IC50 (in assay [1]; at human GST-CLK1 (129-end)) was 301 to 1000 nM in each case.
With `CCCCNc1cc(Nc2ccc(C(=O)N3CCC(N4CCOCC4)CC3)c3c2OCCO3)nc2[nH]cc(C(F)(F)F)c12` [Example 170, (8-((4-(butylamino)-3-(trifluoromethyl)-1H-pyrrolo[2,3-b]pyridin-6-yl)amino)-2,3-dihydrobenzo[b] [1,4]dioxin-5-yl)(4-morpholinopiperidin-1-yl)methanone], the IC50 in assay [1] is 301 to 1000 nM; against human GST-CLK1 (129-end), under 100 nM.
Regarding `O=C(c1ccc(Nc2cc(NC3CCC3)c3c(C(F)(F)F)c[nH]c3n2)c2c1OCCO2)N1CCOCC1` [Example 175, (8-((4-(cyclobutylamino)-3-(trifluoromethyl)-1H-pyrrolo[2,3-b]pyridin-6-yl)amino)-2,3-dihydrobenzo[b] [1,4]dioxin-5-yl)(morpholino) methanone 2,2,2-trifluoroacetate], the IC50 in assay [1] was 301 to 1000 nM; at human GST-CLK1 (129-end), 101 to 300 nM.
Turning to `O=C(c1ccc(Nc2cc(NC3CCC3)c3c(C(F)(F)F)c[nH]c3n2)c2c1OCCO2)N1CCC(N2CCOCC2)CC1` [Example 176, (8-((4-(cyclobutylamino)-3-(trifluoromethyl)-1H-pyrrolo[2,3-b]pyridin-6-yl)amino)-2,3-dihydrobenzo[b] [1,4]dioxin-5-yl)(4-morpholinopiperidin-1-yl)methanone], the IC50 (in assay [1]; against human GST-CLK1 (129-end)) was under 100 nM throughout.
For `COc1cc(P(C)(C)=O)ccc1Nc1cc(C2CC2)c2c(C#N)c[nH]c2n1` [Example 230, 4-cyclopropyl-6-((4-(dimethylphosphoryl)-2-methoxyphenyl)amino)-1H-pyrrolo[2,3-b]pyridine-3-carbonitrile], the half-maximal inhibitory concentration (IC50) (in assay [1]; at human GST-CLK1 (129-end)) was 301 to 1000 nM each time.
